For the assay, the target named is T1, RORγ (Homo sapiens, UniProt P51449).
T1 construct: expressed in transfected cells; host or cells: HEK 293 cells, transiently transfected
T1 sequence (P51449 269-508 limits assumed): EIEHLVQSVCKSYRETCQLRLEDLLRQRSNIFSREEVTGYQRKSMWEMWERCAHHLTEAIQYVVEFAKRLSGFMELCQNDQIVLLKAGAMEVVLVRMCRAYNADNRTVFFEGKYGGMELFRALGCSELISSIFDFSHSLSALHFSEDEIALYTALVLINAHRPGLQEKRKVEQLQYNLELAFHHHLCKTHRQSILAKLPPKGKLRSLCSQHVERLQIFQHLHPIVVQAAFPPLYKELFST
In words: Reporter Gene Assay (RGA): inhibition of RORγ transactivation of a luciferase reporter in transiently transfected HEK 293 cells. Type of assay: cell-based. The following applies: HEK 293 cells cotransfected with pGL4.3 luc2P/GAL4UAS and pBIND Gal4DBD hRORC LBD; 20-24 h incubation; luciferase luminescence. Here is the method: Reporter Gene Assay (RGA)
A nuclear receptor transactivation assay is performed to quantitate the ability of test compounds to inhibit RORγ transactivation of a luciferase reporter. A similar assay is described in: Khan et al., Bioorganic & Medicinal Chemistry Letters 23 (2013), 532-536. The system uses transiently transfected HEK 293 cells cotransfected with two plasmids (pGL4.3, luc2P/GAL4UAS/Hygro, and pBIND, Gal4DBD hRORC LBD1-3). The positive control is co-transiently transfected with both plasmids, and the negative control contains the pGL4.3 promoter sequence. Assays are assembled in 384 well plates where transiently transfected cells and test compound at varying concentrations are incubated for 20-24 h. The next day, assays plates are taken out and equilibrated at RT for 20-30 minutes. Bright-Glo™ Luciferase Assay System is used to detect Luciferase production. After addition of Bright GLO detection reagent, the plates are incubated at RT for 20 minutes. The plates are read on an Envision plate reader to measure luminescence signal. The RLU signal is converted to POC relative to control and blank wells.
Compound dilution buffer:
Bright Glo Luciferase Assay System: Promega #E2620
Thaw lysis buffer provided in kit, add 100 mL lysis buffer to substrate powder.
A general note: Reporter assays use an easily measured gene product as a stand-in for the process of interest.

pIC50: −log10 of the molar value.

With `CCS(=O)(=O)c1ccc(CNC(=O)N2CC(c3cccc(C4CC4)c3)C(c3cc(C4CC4)nn3C(C)C)C2)nc1` (stereo not shown) [Example 52], the negative-log IC50 (pIC50) was 5.83.

As usually defined, the pIC50 is the negative decadic logarithm of the IC50, by convention in mol/L. A high value points to a low IC50.

Values taken from patent publication US10954215B2, “Compounds as modulators of ROR gamma” (Boehringer Ingelheim International GmbH, priority 2016, dated 2021).
